What was measured:
Type in all cases: cell-based, human
[1] = test system: FAO deficient fibroblasts; assay: Superoxide production (MitoSOX dye) in FAO deficient fibroblasts; conditions: FAO deficient fibroblasts cultured in absence of glucose 48-72 h
Experimental: FAO deficient fibroblasts were cultured in the absence of glucose for 48-72 h to shift to fatty acids as the energy source. Oxygen consumption rate (OCR) was monitored by a Seahorse XF analyzer (See FIG. 23). Mitochondrial mass was examined by MitoTracker Green and ROS generation by MitoSOX dye. Protein immunocontent was evaluated by western blotting. […] Testing of XJB-5-131 was conducted essentially as described for JP4-039.
(§1) Cell suspension containing 1×10^5 cells per mL were incubated for 25 min at 37° C. with 150 nM Mitotracker Green, Invitrogen, Grand Island, N.Y., for mitochondrial mass evaluation or for 15 min at 37° C. with 5 μM MitoSOX Red, Invitrogen, Grand Island, N.Y., for superoxide production measurement. After incubation, 10,000 cells samples were analyzed in a Becton Dickinson FACSAria II flow cytometer, BD Biosciences, San Jose, Calif.

[2] = test system: VLCAD deficient fibroblasts (Fb671, Fb773, Fb834); assay: Oxygen consumption rate (Seahorse analyzer) in VLCAD deficient fibroblasts; conditions: FB671, media without glucose, FIG. 25
Experimental: Oxygen consumption assay: Fibroblasts controls and from patients with VLCAD deficiency were cultivated in normal media or in the absence of glucose for 72 hours. The oxygen consumption was monitored by a Seahorse XFe96 Extracellular Flux Analyzer (Seahorse Bioscience, Billerica, Mass.).
(§2) Cells were grown in Dulbecco's Modified Eagle Medium (DMEM), Corning Life Sciences, Manassas, Va., containing high glucose levels or in DMEM devoid of glucose for 48-72 h. Both media were supplemented with glutamine, 10% fetal bovine serum, 4 mM glutamine, 100 IU penicillin and 100 μg/mL streptomycin, Corning Life Sciences, Manassas, Va.
(§3) Cells were treated with different compounds in different concentrations 24 or 48 h before the assays. The compounds used were N-acetylcysteine (1 mM), bezafibrate (600 μM), resveratrol (75 μM), MiloQ (200 nM), trolox (1 mM) and JP4-039 (40 and 200 nM).
Oxygen consumption rate (OCR) was measured with a Seahorse XF^c96 Extracellular Flux Analyzer (Seahorse Bioscience, Billerica, Mass.). The apparatus contains a fluorophore that is sensitive to changes in oxygen concentration, which enables it to accurately measure the rate at which cytochrome c oxidase (complex IV) reduces one O2 molecule to two H2O molecules during OXPHOS. Cells were seeded in 96-well Seahorse tissue culture microplates in growth media at a density of 80,000 cells per well. To ensure equal cell numbers, cells were seeded in cell culture plates pre-coated with Cell-Tak (BD Biosciences, San Jose, Calif.). All cell lines were measured with four to six wells per cell line. Then, the entire experiments were repeated. Before running the Seahorse assay, cells were incubated for 1 h without CO2 in unbuffered DMEM. Initial OCR was measured to establish a baseline (basal respiration). Reserve capacity was also determined after the injection of 300 nM carbonyl cyanide 4-(trifluoromethoxy) phenylhydrazone (FCCP), Seahorse XF Cell Mito Stress Test Kit, Santa Clara, Calif. Data were reported in pmol/min for OCR.

[3] = test system: VLCAD deficient fibroblasts (Fb671, Fb773, Fb834, Fb833); assay: Superoxide production (MitoSOX Red, flow cytometry) in VLCAD deficient fibroblasts; conditions: patient cells, media without glucose 48 h, after 24 h of treatment; FIGS. 27 and 28
Experimental: ROS generation: control and patient fibroblasts were cultivated in normal media or without glucose for 48 hours, then incubated for 15 min with MitoSox Red (Life Technologies). Fluorescence was evaluated by flow cytometry.
as §2, §3, §1

SMILES | Increased superoxide production [1] | Reserved capacity (oxygen consumption) ([2]; 40 nM) | Basal respiration (oxygen consumption) ([2]; 200 nM) | Reserved capacity (oxygen consumption) ([2]; 200 nM) | Superoxide generation (increased levels in VLCAD deficient cells) [3]
CC(C)C[C@@H](/C=C/[C@H](Cc1ccccc1)C(=O)N1CCC[C@H]1C(=O)N[C@H](C(=O)N[C@@H](CCCNC(=O)OCc1ccccc1)C(=O)NC1CC(C)(C)N([O])C(C)(C)C1)C(C)C)NC(=O)OC(C)(C)C [XJB-5-131] | prevented | improves | improved | improves | 
COC1=C(OC)C(=O)C(CCCCCCCCCC[P+](c2ccccc2)(c2ccccc2)c2ccccc2)=C(C)C1=O [MitoQ] |  |  |  |  | JP4-039 was the only antioxidant able to decrease superoxide generation
Oc1ccc(C=Cc2cc(O)cc(O)c2)cc1 [resveratrol] |  |  |  |  | JP4-039 was the only antioxidant able to decrease superoxide generation
CC(=O)N[C@@H](CS)C(=O)O [N-acetylcysteine] |  |  |  |  | JP4-039 was the only antioxidant able to decrease superoxide generation

From patent US20190142893A1, “Electron, Radical, or Reactive Oxygen Species-Scavenging Agent Based Therapy of Inborn Errors of Fatty Acid Oxidation and Oxidative Phosphorylation” (University of Pittsburgh- Of the Commonwealth System of …, priority 2016, published 2019)
